According to patent publication US20110015246A2, “LOFEXIDINE ENANTIOMERS FOR USE AS A TREATMENT FOR CNS DISEASE AND PATHOLOGIES AND ITS CHIRAL SYNTHESIS” (Agean LLC, priority 2006, published 2011):

How the values were obtained:
[1] = chills, vomiting, sweating, stomach cramps, diarrhea, muscle pain, runny nose and eyes; cited from earlier work
[2] = effect on blood pressure and bradycardiac activity (peripheral side effects); type: in vivo
[3] = tested on: α1-adrenergic receptors in rat brain membranes; assay: binding to α1-adrenergic receptors in rat brain membranes
[4] = tested on: α2-adrenergic binding sites in rat brain membranes; assay: binding to α2-adrenergic binding sites in rat brain membranes
pithed normotensive rats = assay: pressor effects after intravenous administration in pithed normotensive rats; type: in vivo, rat
[5] = tested on: pentobarbitone anesthetized normotensive rats; assay: mean arterial pressure and heart rate after intravenous administration in pentobarbitone anesthetized normotensive rats; type: in vivo, rat
[6] = tested on: brain adrenergic receptors; assay: potency at brain adrenergic receptors involved in opioid detoxification; type: binding
pithed rat = assay: electrical stimulation-evoked heart rate and diastolic pressure increase in the pithed rat; type: in vivo

CC(Oc1c(Cl)cccc1Cl)C1=NCCN1 (racemic) [Lofexidine, 2-[1-(2,6-dichlorophenoxy)ethyl]-4,5-dihydro-1H-Imidazole]
reducing the symptoms associated with heroin withdrawal [1]: effective

CC(Oc1c(Cl)cccc1Cl)C1=NCCN1 (single isomer, unassigned; (+)) [(+)-lofexidine, 2-[1-(2,6-dichlorophenoxy)ethyl]-4,5-dihydro-1H-Imidazole]
peripheral side effects on blood pressure ([2]; compared to (±)-lofexidine): considerably lower | bradycardiac activity ([2]; in vivo): practically no effect | effect on reducing blood pressure ([2]; in vivo): practically no effect | potency at α1-adrenergic receptors, times less potent than (−)-lofexidine ([3]; rat brain membranes, (+) vs (−)): four | potency at α2-adrenergic receptors, times less potent than (−)-lofexidine ([4]; (+) vs (−)): nine

CC(Oc1c(Cl)cccc1Cl)C1=NCCN1 (single isomer, unassigned; (-)) [(−)-lofexidine, 2-[1-(2,6-dichlorophenoxy)ethyl]-4,5-dihydro-1H-Imidazole]
doses eliciting pressor effects, times lower than (+)-lofexidine (pithed normotensive rats): 20 times | effectiveness in decreasing heart rate relative to (+)-lofexidine [5]: twenty | effectiveness in decreasing mean arterial pressure relative to (+)-lofexidine [5]: twenty | affinity for α1-adrenergic receptors relative to the (+)-enantiomer (times greater) ([3]; (−) vs (+)): about four | potency at brain adrenergic receptors compared with (+)-lofexidine [6]: more potent | affinity for α2-adrenergic binding sites relative to the (+)-enantiomer (times higher) ([4]; (−) vs (+)): about nine | potency in decreasing the increased heart rate evoked by electrical stimulation relative to (+)-lofexidine (pithed rat): thirty | impairment of electrical stimulation-induced increase in diastolic pressure (pithed rat; compared with (+)-lofexidine): more effectively unpaired
